Consider 1 compound from patent US10280183B2, “Therapeutic agent for treating tumors” (THE RESEARCH FOUNDATION FOR THE STATE UNIVERSITY OF NEW YORK, priority 2014, dated 2019).

Holding throughout (type): cell-based
The subject of assay [1] is MX-1 human breast carcinoma cell line (BR+). Nature of the assay: In vitro cytotoxicity, standard MTT assay, MX-1 cells. Particulars: read-out: IC50, MX-1 (breast). As to the method:
(§1) Cell Culture. All cell lines were obtained from ATCC unless otherwise noted. Cells were cultured in RPMI-1640 cell culture medium (Gibco) or DMEM (Gibco), both supplemented with 5% (v/v) heat-inactivated fetal bovine serum (FBS), 5% (v/v) NuSerum, and 1% (v/v) penicillin and streptomycin (PenStrep) at 37° C. in a humidified atmosphere with 5% CO2. MX-1 and ID8 (obtained from University of Kansas Medical Center) cells were cultured as monolayers on 100 mm tissue culture dishes in supplemented RPMI-1640. L1210 and L1210FR (a gift from Dr. Gregory Russell-Jones, Access Pharmaceuticals Pty Ltd., Australia) were grown as a suspension in supplemented RPMI-1640, and WI-38 as a monolayer in supplemented DMEM. Cells were harvested, collected by centrifugation at 850 rpm for 5 min, and resuspended in fresh culture medium. Cell cultures were routinely divided by treatment with trypsin (TrypLE, Gibco) as needed every 2-4 days and collected by centrifugation at 850 rpm for 5 min, and resuspended in fresh cell culture medium, containing varying cell densities for subsequent biological experiments and analysis.
(§2) In Vitro Cytotoxicity Assays. […] Cells were harvested, collected, and resuspended in 100 μL cell culture medium at concentrations ranging from 0.5-1.5×10^4 cells per well in a 96-well plate. For adhesive cell types, cells were allowed to descend to the bottom of the wells overnight, and fresh medium was added to each well upon removal of the old medium.
(§3) For the MTT assay (Table 1 and the Assay 1 in Table 2) of paclitaxel, taxoid 3 and conjugates 1 and 15, cells were resuspended in 200 μL medium with 8,000 to 10,000 cells per well of a 96-well plate and incubated at 37° C. for 24 h before drug treatment. In DMSO stock solutions, each drug or conjugate was diluted to a series of concentrations in cell culture medium to prepare test solutions. After removing the old medium, these test solutions were added to the wells in the 96-well plate to give the final concentrations ranging from 0.5 to 5,000 nM (100 μL), and the cells were subsequently cultured at 37° C. for 48 h (Table 1) or 72 h (Table 2, Assay 1). For the leukemia cell lines, L1210 and L1210FR, cells were harvested, collected, and resuspended in the test solutions ranging from 0.5 to 5,000 nM (100 μL) at 0.5 to 0.8 ×10^4 cells per well in a 96-well plate and subsequently incubated at 37° C. for 48 h (Table 1) or 72 h (Table 2, Assay 1).
(§4) In the Assay 2 (Table 2), cells were incubated with 1 or 15 at 37° C. for 24 h, and the drug medium was removed. Then, treated cells were thoroughly washed with PBS, and GSH-OEt (6 equiv. to conjugate) in cell culture medium (200 μL) was added to the wells. These cells were incubated at 37° C. for an additional 48 h, i.e., the total incubation time was 72 h.
(§5) In the Assay 3 (Table 2), cells were incubated with 1 or 15 at 37° C. for 24 h, and GSH-OEt (6 equivalents) in cell culture medium (100 μL) was directly added to the wells. These cells were incubated at 37° C. for an additional 48 h, i.e. the total incubation time was also 72 h.
(§6) For all experiments, after removing the test medium, fresh solution of MTT in PBS (40 μL of 0.5 mg MTT/mL) was added to the wells, and the cells were incubated at 37° C. for 3 h. The MTT solution was then removed, and the resulting insoluble violet formazan crystals were dissolved in 0.1 N HCl in isopropanol with 10% Triton X-100 (40 μL) to give a violet solution. The spectrophotometric absorbance measurement of each well in the 96-well plate was run at 570 nm using a Labsystems Multiskan Ascent microplate reader. The IC50 values and their standard errors were calculated from the viability-concentration curve using Four Parameter Logistic Model of Sigmaplot. The concentration of DMSO per well was ≤1% in all cases. Each experiment was run in triplicate.

Assay [2] relates to WI38 human lung fibroblast cell line (BR−). Put plainly: In vitro cytotoxicity, standard MTT assay, WI38 cells. As to conditions: 24 hour incubation; read-out: IC50, WI38 (normal lung). On the technique in general: Tetrazolium dyes change colour on reduction, which living cells bring about.
Assay [3] relates to L1210FR murine lymphocytic leukemia cell line (BR+). Nature of the assay: In vitro cytotoxicity, standard MTT assay, L1210FR cells. As to conditions: 24 hour incubation; read-out: IC50, L1210 FR (leuk.).
Assay [4] deals with ID8 murine ovarian carcinoma cell line (BR+). Put plainly: In vitro cytotoxicity, standard MTT assay, ID8 cells. As to conditions: read-out: IC50, ID8 (ovarian). As to the method: as §1, §2
as §3, with “After removing the old medium, these test solutions were added to the wells in the 96-well plate to give the final concentrations ranging from 0.5 to 5,000 nM (100 μL), and the cells were subsequently cultured at 37° C. for 48 h (Table 1) or 72 h (Table 2, Assay 1).” left out
as §6

Assay [5] deals with L1210 murine lymphocytic leukemia cell line (BR−). Put plainly: In vitro cytotoxicity, standard MTT assay, L1210 cells. As to conditions: 72 h drug incubation; read-out: IC50, L1210 (leuk.). How it is done:
as §1, §2, §3, §6

The next assay has as its system MCF-7 (breast). Nature of the assay: In vitro cytotoxicity, standard MTT assay, MCF-7 cells. As to conditions: 72 h drug incubation. How it is done:
as §2
For the MTT assay (Table 1 and the Assay 1 in Table 2) of paclitaxel, taxoid 3 and conjugates 1 and 15, cells were resuspended in 200 μL medium with 8,000 to 10,000 cells per well of a 96-well plate and incubated at 37° C. for 24 h before drug treatment. In DMSO stock solutions, each drug or conjugate was diluted to a series of concentrations in cell culture medium to prepare test solutions. […]
For all experiments, after removing the test medium, fresh solution of MTT in PBS (40 μL of 0.5 mg MTT/mL) was added to the wells, and the cells were incubated at 37° C. for 3 h. […] The spectrophotometric absorbance measurement of each well in the 96-well plate was run at 570 nm using a Labsystems Multiskan Ascent microplate reader. The IC50 values and their standard errors were calculated from the viability-concentration curve using Four Parameter Logistic Model of Sigmaplot. […]

The subject of assay [6] is L1210FR murine lymphocytic leukemia cell line (BR+). Nature of the assay: In vitro cytotoxicity, standard MTT assay, L1210FR cells. As to conditions: 72 h drug incubation; read-out: IC50, L1210FR (leuk.). As to the method: as §1, §2, §3, §4, §5, §6
The subject of assay [7] is WI38 human lung fibroblast cell line (BR−). Put plainly: In vitro cytotoxicity, standard MTT assay, WI38 cells. Particulars: 72 h drug incubation; read-out: IC50, WI38 (normal lung). As to the method: as §1, §2, §3, §4, §5, §6

pIC50: −log10 of the molar value. Like-named read-outs stand apart in the source and are kept apart here.

The term pIC50 denotes −log10 of the IC50, conventionally taken in molar units. For `CC[C@@]1(OC(=O)Cc2ccccc2SSC(C)CCC(=O)NCCOCCOCCOCCn2cc(CNc3nc(NCCNC(=O)CCC(C)SSc4ccccc4CC(=O)O[C@@H](C(=O)O[C@H]4C[C@@]5(O)[C@@H](OC(=O)c6ccccc6)[C@@H]6[C@]7(OC(C)=O)CO[C@@H]7C[C@H](O)[C@@]6(C)C(=O)[C@H](OC(=O)C6CC6)C(=C4C)C5(C)C)[C@H](C=C(C)C)NC(=O)OC(C)(C)C)nc(NCCOCCOCCOCCNC(=O)CCCC[C@@H]4SC[C@@H]5NC(=O)N[C@@H]54)n3)nn2)C(=O)OCc2c1cc1n(c2=O)Cc2cc3ccccc3nc2-1` (stereo partly shown) [Compound 116], the negative logarithm of the IC50 (pIC50) in assay [1] (24 hour incubation) is 8.01; in assay [1] (72 h drug incubation), 7.29; in assay [2] it was 6.15; in assay [3] it was 8.13; in assay [4] (24 hour incubation), 8.25; in assay [4] (72 h drug incubation), 7.63. For the same compound, the pIC50 in assay [5] is 6.16; in the assay on MCF-7 (breast), 7.72; in assay [6] it was 7.41; in assay [7], 6.13.
